Laboratory results taken from patent US20080226565A1, “Anticariogenic Proteins & Peptides & Saccharides” (priority 2004, published 2008).

What was measured:
Parameters in all cases: species or system human
[1] = Determination of the PF-value: Knoop micro hardness of tooth samples coated with product, then saliva and acetic acid (in-vitro)
Excerpt: The capacity to protect teeth against caries can be measured with a technique well known in the art (U.S. Pat. No. 5,279,814). Demineralization with acid, decreases the hardness of the tooth surface. The hardness can be quantified indirectly by measuring the depth of penetration of a needle in the surface (measurement of micro hardness). With this procedure, so called “Knoop” method, the needle is penetrating the surface under the pressure of constant weight and leaves a mark on the surface that allows the calculation of the depth of penetration. The more the tooth is suffering from demineralization, the softer its surface will get and the larger the depth of penetration will be (Knoop F., Peters C. G., Emerson W. B., A Sensitive Pyramidal Diamond Tool for Identation Measurments, J. Res. Natn. Bur. Stand. 23, 39-61 (1939).
The procedure includes the determination of the hardness of a human tooth sample with the Knoop method. Subsequently, the tooth is treated with an experimental protecting product outside the oral cavity.
It is cleaned softly with a paper towel until the coating is invisible.
Subsequently the tooth sample is submerged in a batch of human saliva in order to simulate the conditions in the oral cavity. After removal from the saliva batch (after 30 min.) it is treated with acid over a constant time period of 30 min. at 37° C. The acid is washed away, the tooth is dried on air and the hardness is measured again. The change in hardness (delta P in μm) is obtained by comparing with the hardness of the tooth before treatment. This experiment is repeated on other tooth samples. The effect of acid on unprotected teeth is obtained by carrying out the same procedure but without the use of an experimental protecting product (delta Pa). The protecting capacity (“PF” protection factor) of an experimental protecting compound can be defined as: […]
The ability of a product to protect teeth (PF-value) is determined with the Knoop method. A tooth sample, size 3×3×3 mm is cut from a human tooth and embedded into polymerizing resin in such a way that the surface of the tooth sample appears on the surface of the (resin) cube after the resin has become solid. The surface of the tooth is mechanically polished with rotating silicon carbide abrasive paper (Struers P1200-P2400-P4000) and the micro hardness of the enamel is determined with a Knoop diamant needle (Leitz-Wetzlar;
microdurometer “Durimet”; weight 50 gr; penetration-time: 30 seconds (Collys et al., J. Dent. Res. 1990; 69: 458-462)).
The penetration leaves a mark on the tooth surface, which is related to the depth of penetration (μm) and which can be analyzed under the microscope. […] The determination of the depth of penetration is repeated six times on each of the tooth samples and the average value is calculated. In order to determine the effect of acid on the hardness of the surface, use is made of an acetic acid buffer from Merck (pH 5; 0.1N). One drop of acid is positioned on the enamel for a period of 30 minutes at 37° C. The sample is cleaned with demineralized water and dried. The hardness is measured again according to the method of Knoop. This procedure is repeated 4 times, which means that the sample has been subjected to acid for a total period of two hours.
A graph (Y: penetration depth μm; X: 5 treatment stages) can be made on the basis of 5 average values (each of them based on six measurement), one obtained before treatment with acid, and the other 4 obtained after each of the 4 treatment-stages with acid. A logaritmic regressionline is calculated.

[2] = In-vivo: radiated tooth samples treated with protector, 5 days in the oral cavity, Knoop hardness; conditions: for delta: change of hardness (increase of depth of penetration): radiation + 5 days in oral cavity, 0.1% fluoride or 4% bisphosphonate e-polylysine with CaCl2 and KH2PO4
Excerpt: A device is constructed that can contain up to 6 experimental tooth samples for positioning in the oral cavity. […] The construction of the experimental tooths samples is outlined in chapter C.2.“Results; in-vivo experiments”. In the oral cavity, the tooth samples are positioned in the device in such a way that the enamel surfaces are subjected to physical contact with the tongue and are submerged in saliva. […] In experiments where the device is residing a long time period in the oral cavity (5 days and more), a metal network is positioned just above the surface of the experimental teeth, in order to provide support for the bacteria and stimulate it's growth path. It is also possible to measure the residual protection competence by removing the tooth samples from the oral cavity at the end of the selected residence time and treating them with acid under laboratory conditions.
The device was positioned after the lower jaw in the oral cavity for a period of five days. After removal from the oral cavity, the samples where cleaned and the hardness was measured.
(§1) Tooth samples have been cut in horizontal slices (thickness: 0.3 to 1 mm) with a Leitz 1600 tooth cutter with horizontal cutting blade; the slices are cut manually (with a bore) into small tooth samples that contain a small part of the original tooth surface. The tooth sample is positioned in a small plastic tube, that has been cut from a long plastic tube with 6 mm external diameter. The length of the tube is 3 to 6 mm. The inner part of the tube is filled with a polymer that hardens under light (Photoclearfil Bright; Kuraray). The tooth sample is positioned in the soft polymer inside the tube, in such a way that the original tooth surface is just surfacing above the tube. Finally the polymer is hardened with a light source. The tooth surface is polished with Struers silicon carbid paper (800-4000) and the hardness is measured 5 times on each of the samples under the Letiz Wetzlar microscope (weight on needle: 50 p). Tooth samples with a maximum average depth of penetration of 43 μm are retained for use in the oral cavity.
Tooth samples have been subjected to a radiation dose that is equal to the amount that is given to patients with oral cancer (20 Gray) and have been sterilized. […] A drop of the solution was positioned on the tooth surface and allowed to reside for a period of 30 minutes at 37 C.; the procedure was repeated after removal of the drop with pressured air. Finally the drop was removed, the tooth was dried on air and fixed to the device. In total six tooth samples have been fixed to the device and positioned in the oral cavity after the lower jaw. It remained in the oral cavity for a period of 5 days (day and night). After completion of the required residence time, the device was removed from the oral cavity and the experimental teeth where separated from the device and washed. The hardness was measured according to the Knoop method, six times on each of the tooth samples.
B: the stage at which the hardness of the tooth surface has been measured with the Knoop method. (before the treatment; after radiation and before addition of protector formulation to the surface; after addition of protector to the surface of the tooth and after residing five days in the oral cavity).
B: the stage at which the hardness of the tooth surface has been measured with the Knoop method.

[3] = In-vivo: residual protection, radiated samples after 5 days in oral cavity treated with acetic acid
Excerpt: N: number of tooth samples A: hardness(μm) after radiation and 5 days residence in the oral cavity B: hardness after radiation and 5 days in the oral cavity and treatment with acetic acid

[4] = In-vivo: tooth samples treated with peptide, 12 hours in the oral cavity, then acetic acid, Knoop hardness
Protocol: In another experiment, 126 sterilized tooth samples where treated with a variety of peptides, fixed to the device and positioned after the lower jaw in the oral cavity of 5 volunteers. The device remained in the oral cavity for a period of 12 hours after which the teeth where removed, cleaned and subjected to a drop of acetic acid (0.1N, 30 min., 37° C). Subsequently the acid was removed, the teeth where cleaned and the hardness was measured (Knoop method). The depth of penetration increased 8.82 μm, 5.40 μm, 5.32 μm and 3.77 μm respectively for teeth treated as blanco with 4.2% casein phosphopeptide e-polylysine copolymer, 7.5% phosvitin and with 4.2% bisphosphonylated e-polylysine. The p-values are respectively 0.000, 0.000 and 0.004 for casein phosphopeptide e-polylysine copolymer, bisphosphonylated e-polylysine and phosvitin.
as §1
The tooth-samples are fixed to a device that has been described in the chapter “Description of the invention ( chapter: In-vivo experiments)” and the device is positioned in the oral cavity after the lower jaw.
A drop from a solution containing either, e-polylysine, CPP, bisphoshphonylated e-polylysine, casein phosphopeptide epsilon-polylysine copolymer or partially hydrolysed phosvitin has been positioned at the surface of tooth samples for a period of 30 minutes at 37 C.; the drop was removed and the procedure was repeated once more. All solutions contained also 3.1% CaCl2.2H2O and 1.7% KH2PO4 (except for the one containing e-polylysine).
The tooth surface was cleaned with a soft paper towel until it was visibly clean. Four such tooth samples where fixed to the device and located in the oral cavity behind the lower jaw. They resided in the oral cavity for a period of 12 hours (only to be removed during eating). Subsequently, they where removed, cleaned and the tooth surface was treated with a drop of acetic acid (0.1N, 30 min., 37° C.); the acid was removed, the tooth was washed with deionized water and the hardness was evaluated.
A: type of peptide ingredient in the solution (% on a w/w basis versus water). (*): the teeth where submerged (30 min.) in a saliva batch and dried afterwards on air, before they where treated with a solution that contained bisphosphonylated e-polylysine. B: Average initial hardness of the tooth surface; μm (st. dev.) C: Average hardness after treatment, after residing in the oral cavity and treatment with acid D: The average change in hardness (C−B) E: p-value (against blanco) of the Mann-Whitney statistical test F: the number of tooth samples that where treated with a specific formulation; hardness on each of the tooth samples was measured five times and an average value was calculated; most often 4 tooth samples per person; 5 volunteers participated to the experiment; the 132 tooth samples where randomized into groups (of 4 teeth) with the same average hardness value.

[5] = gel: 4.2% hydroxyethylcellulose, 0.3% NaF, pH 8.8
[6] = 4.2% w/w solution, 12 hours oral cavity, acetic acid 0.1N 30 min

## Polymerized (CPP) = (CPP)n [Product 2]
[1]; 7.2% product/water w/w
  PF factor: 58

## NC(CO)(CO)CO [Product V, Tris(hydroxymethyl)aminoethane, reference compound]
[1]; 3.4% product/water w/w
  PF factor: 35

## [F-].[Na+] [Product IV, sodium fluoride, reference compound]
[1]; 0.1% product/water w/w
  PF factor: 61
[1]; gel with 0.3% sodium fluoride only
  PF: 68%
[1]; [5]
  PF: 68.1
  delta P: 18.8 μm
[2]; after protector and 5 days oral cavity, 0.1% NaF or 4% bisphosphonate e-polylysine with CaCl2 and KH2PO4
  Mean hardness (depth of penetration): 42.77 μm
[2]; after radiation, before addition of protector (baseline of group)
  Mean hardness (depth of penetration): 40.97 μm
[2]; after radiation, before addition of the formulation
  delta: change of hardness: −0.13 μm
[2]
  delta: change of hardness (increase of depth of penetration): 1.67 μm
[2]; listed as NaF
  delta: change of hardness (increase of depth of penetration): 1.8 μm
[2]; start, before treatment (baseline of group)
  Mean hardness (depth of penetration): 41.10 μm
[3]; acetic acid 0.1N, 30 min, 37° C. after 5 days in oral cavity
  C: B−A (increase of depth of penetration by acid): 6.5 μm
[3]; acetic acid 0.1N, pH 5, 30 min, 37° C.
  B: hardness after radiation and 5 days in the oral cavity and treatment with acetic acid: 48.4 μm
[3]; samples later treated with acid
  A: hardness after radiation and 5 days residence in the oral cavity: 41.9 μm

## Natural phosvitin (Phos) [Product 3, reference compound]
[4]; 7.5% w/w solution
  D: average change in hardness (C−B): 5.32 μm

## Partially hydrolyzed phosvitin, (Phos-h) [Product 5]
[1]; versus natural phosvitin
  more protection competence in comparison to natural phosvitin: 25%

## Casein phosphopeptide (CPP) [Product 1, reference compound]
[4]; [6]
  C: Average hardness after treatment, after residing in the oral cavity and treatment with acid: 47.60 (2.53) μm
  D: average change in hardness (C−B): 6.78 μm
[4]; group for 4.2% solution, before treatment
  B: Average initial hardness of the tooth surface (st. dev.): 40.82 (0.73) μm
